The record followed here is the NIST ThermoML archive (doi:10.1016/j.jct.2016.02.006).

The refractive index is a measure of how strongly the sample bends light.

Data set [1] can be described thus: refractive index (Na D-line) (dimensionless). The note with it: 293.15 K; 101.33 kPa; Liquid; Standard Abbe refractometry.
Data set [2] can be described thus: Molar enthalpy of transition or fusion. The settings on record: Crystal; DSC.
The conditions of data set [3]: Crystal; DTA.

Numbers after ± are expanded uncertainties.

For `NCCO` [2-aminoethan-1-ol], the refractive index in data set [1] worked out at 1.4542 ± 0.0004.
Same read-out and setting: under `O=CN1CCOCC1` [N-formylmorpholine] stands 1.4849 ± 0.0004; under `CN1CCCC1=O` [N-methylpyrrolidone], 1.469 ± 0.0004.
As for `CC#N` [acetonitrile], the refractive index in data set [1] was determined as 1.3439 ± 0.0004.
With `C=C(C)[C@@H]1CC[C@]2(CO)CC[C@]3(C)[C@H](CC[C@@H]4[C@@]5(C)CC[C@H](O)C(C)(C)[C@@H]5CC[C@]43C)[C@@H]12` [betulin], the “Molar enthalpy of transition or fusion” value in data set [2] turned out to be 13.2 ± 0.359 kcal/mol. In addition, the Normal melting temperature in data set [3] is 255.0 ± 0.4 °C.
For the compound `CCC(C)O` (stereo not given) [butan-2-ol], in data set [1], the refractive index turned out to be 1.3983 ± 0.0004.
Same read-out and setting: under `CN(C)C=O` [dimethylformamide] stands 1.4304 ± 0.0004; under `CCCCCCCCCCCC` [dodecane], 1.4218 ± 0.0004.
Turning to `CCCCCCCCCCCCCCCC` [hexadecane], in data set [1], the refractive index is reported as 1.4346 ± 0.0004.
Still for that read-out and setting: the figure for `CCCCCCCCCO` [nonan-1-ol] is 1.4334 ± 0.0004; for `CCCCCCCCO` [octan-1-ol] it is 1.4291 ± 0.0004.
Same read-out and setting: under `CCCCCCCC` [octane] stands 1.3978 ± 0.0004; under `CCCCCO` [pentan-1-ol], 1.4098 ± 0.0004; under `O` [water], 1.3329 ± 0.0004.
